Key:
Assay type in all cases: cell-based
BT-549 = assay: MTT assay
Protocol: (§1) MTT assay: Cells were grown to log phase in their respective media, washed in PBS, trypsinized, and plated on 96-well plates at a density of 3,000-6,000 cells per well in 200 μL of complete media. Cells were allowed to recover for 18 hours and were then exposed to AgNPs for 48 or 72 hours. For NAC studies, cells were exposed to 4 mM NAC (Sigma Aldrich) diluted in growth media for 6 h prior to AgNP treatment. Media containing NAC was removed and replaced with media containing AgNPs. For induction of EMT, cells were exposed to 10 ng/ml TGF-β1 (R&D Systems) for 6 days at 37° C., prior to AgNP treatment. Media containing AgNPs were replaced with 200 μL of media containing 0.5 mg/mL MTT and incubated for 1 hour at 37° C. Medium was removed, and cells were lysed in 200 μL of DMSO and read using a Molecular Devices Emax Precision Microplate Reader at 560 nm and corrected for background at 650 nm.
ZEB1 Knockdown: BT549 cells were plated in 60mm tissue culture plates and allowed to grow to 80-90% confluence. Each plate was then transfected with a non-coding control shRNA plasmid, or a plasmid containing shRNA targeted against ZEB1. Knockdown constructs used in this study were obtained from Sigma Aldrich (Mission shRNA TRCN0000369267 and TRCN0000369266). Each plate was transfected using 1 μg plasmid in conjunction with Lipofectamine 2000 (Invitrogen) according to the manufacturer's protocol. The following day cells were reseeded and were maintained in medium containing puromycin (2 μg/ml). ZEB1 expression levels were verified using immunoblot prior to experimentation.
TNBC cell lines which can be further classified as the CLBC (MDA-MB-231, BT-549, SUM-159) or basal (BT-20, MDA-MB-468) molecular subtypes were tested, as were luminal A (MCF-7), HER-2+ (SKBR3), and non-cancerous breast (MCF-10A, 184B5, iMEC) cell lines (FIG. 2A). […] As with the 48 h treatment, the CLBC cell lines were the most sensitive to AgNPs following a 72 h treatment.
(§2) IC50 calculations were performed using the prism software. IC50 in Table II are shown in total NP (AgNP) concentration and silver (Ag) content. At least 3 independent experiments were conducted for each cell line.
BT549 claudin-low breast cancer cells were treated with either AgNPs or KRIBB11, an HSF1 inhibitor, independently and in combination. The treated cells were then assessed for cell viability by MTT assay (FIG. 17A).
BT549 claudin-low breast cancer cells were treated with either AgNPs or 17-DMAG, an HSP90 inhibitor, independently and in combination. Treated cells were then assessed for cell viability by MTT assay (FIG. 19A). […] Combination treatment of both AgNPs and […]

MDA-MB-231 = assay: MTT assay
Protocol: as §1
As with the 48 h treatment, the CLBC cell lines were the most sensitive to AgNPs following a 72 h treatment.
as §2

[1] = system: PERK arm of the UPR in MDA-MB-231 cells; assay: Immunoblotting of PERK arm activation (p-eIF2α); settings: 4 h
Protocol: MDA-MB-231 cells were treated with 1 μM of the ER stress inducer, thapsigargin, 25 nM of the PERK inhibitor (PERKi), […], or the combination of thapsigargin and GSK2606414 for 4 h to verify the efficacy of the PERKi, GSK2606414. […] To further evaluate the role of ER stress in AgNP-induced cytotoxicity, MDA-MB-231 cells were treated with increasing doses of AgNPs alone or in combination with the PERKi, GSK2606414, for 48 h to determine if PERK inhibition provides protection against AgNP-induced cytotoxicity.

BT-20 = assay: MTT assay
Protocol: as §1
TNBC cell lines which can be further classified as the CLBC (MDA-MB-231, BT-549, SUM-159) or basal (BT-20, MDA-MB-468) molecular subtypes were tested, as were luminal A (MCF-7), HER-2+ (SKBR3), and non-cancerous breast (MCF-10A, 184B5, iMEC) cell lines (FIG. 2A). […]
BT20 basal-like breast cancer cells were treated with either AgNPs or KRIBB11, an HSF1 inhibitor, independently and in combination. Treated cells were then assessed for cell viability by MTT assay (FIG. 18A).

[2] = system: AgNP sensitive cell lines; assay: ROS detection with H2DCF-DA; settings: 24 h 10 mM NAC

SMILES: CO[C@H]1/C=C\C=C(/C)C(=O)NC2=CC(=O)C(NCCN(C)C)=C(C[C@@H](C)C[C@H](OC)[C@H](O)[C@@H](C)/C=C(\C)[C@@H]1OC(N)=O)C2=O [17-DMAG]
- sensitivity to AgNPs versus HSP90 inhibition (dose reduction index) (BT-549; BT549, single agents): equally sensitive

SMILES: Cn1cc(-c2ccc3c(c2)CCN3C(=O)Cc2cccc(C(F)(F)F)c2)c2c(N)ncnc21 [GSK2606414]
- viability, AgNPs alone vs in combination with the PERKi (MDA-MB-231; MDA-MB-231, 48 h): no significant difference in viability
- p-eIF2α expression, co-treatment with thapsigargin vs thapsigargin alone ([1]; MDA-MB-231, 25 nM PERKi + 1 μM thapsigargin): decreased p-eIF2α expression

SMILES: CNc1ccc([N+](=O)[O-])c(Nc2ccc3[nH]ncc3c2)n1 [KRIBB11]
- combination treatment with AgNPs (combination index) (BT-20; BT20, AgNPs + HSF1 inhibitor): synergistic response
- sensitivity to AgNPs versus HSF1 inhibition (dose reduction index) (BT-20; BT20, single agents): marginally more sensitive to AgNPs
- combination treatment with AgNPs (combination index) (BT-549; BT549, AgNPs + HSF1 inhibitor): synergistic response
- combination treatment with AgNPs (combination index) (BT-549; BT549, AgNPs + HSP90 inhibitor): additive response
- sensitivity to AgNPs versus HSF1 inhibition (dose reduction index) (BT-549; BT549, single agents): equally sensitive

SMILES: CC(=O)N[C@@H](CS)C(=O)O [NAC, N-acetylcysteine]
- effect of NAC pre-treatment on AgNP cytotoxicity (MDA-MB-231; MDA-MB-231, 4 mM NAC 6 h before 48 h AgNP, Ag 15.625-62.5 μg/ml): significantly decreased cytotoxicity
- effect of NAC pre-treatment on AgNP cytotoxicity (BT-549; BT-549, 4 mM NAC 6 h before 48 h AgNP, Ag 62.5-125 μg/ml): significantly decreased cytotoxicity
- basal ROS after NAC treatment [2]: partially mitigate some of the basal ROS

SMILES: C/C=C(/C)C(=O)O[C@H]1C(C)=C2[C@H]([C@@H]1OC(=O)CCCCCCC)[C@@](C)(OC(C)=O)C[C@H](OC(=O)CCC)[C@@]1(O)[C@H]2OC(=O)[C@@]1(C)O [thapsigargin, Thapsigargin]
- phosphorylation of eIF2α (p-eIF2α) ([1]; MDA-MB-231, 1 μM): increase in phosphorylation of the downstream effector, eIF2α

Reference: patent US20210186888A1, “NANOPARTICLE COMPOSITIONS FOR CANCER TREATMENT” (priority 2017, published 2021)
